Test results reported in PubChem BioAssay AID2060900 (Molecular Pharmacology Branch, DTP, NCI, 2025).

Tested on: 521955-158-R2-J5-PDC complex spheroids, viability
Experiment: Anticancer human tumor 521955-158-R2-J5-PDC patient-derived pancreatic carcinoma cell line growth inhibition [RAS]
Conditions: for IC50: curve of first compound; for viability, T/C: stronger effect = lower value
Method in brief: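 Multi-cell-type spheroids: tumor cells plus HUVEC endothelial cells and mesenchymal stem cells. RAS-pathway inhibitors were combined with targeted agents, each dosed in half-log steps down from clinical Cmax, or from 10 microM when Cmax was unknown.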
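Also: compound exposure lasted seven days before the viability read.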
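For viability, T/C in this document: spheroids also contain HUVEC endothelial cells and mesenchymal stem cells as stroma.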

CC(=O)OC12COC1CC(O)C1(C)C(=O)C(O)C3=C(C)C(OC(=O)C(O)C(NC(=O)OC(C)(C)C)c4ccccc4)CC(O)(C(OC(=O)c4ccccc4)C21)C3(C)C (configuration not stated) + C#Cc1c(F)ccc2cc(O)cc(-c3ncc4c(N5CC6CCC(C5)N6)nc(OCC56CCCN5CC(F)C6)nc4c3F)c12
IC50 (second compound 0.0316 µM): < 31.6 nM | IC50 (second compound 0.1 µM): < 31.6 nM | IC50 (second compound 0.316 µM): < 31.6 nM | IC50 (second compound 1 µM): < 31.6 nM | IC50 (second compound 3.16 µM): < 31.6 nM | IC50 (second compound 10 µM): < 31.6 nM | viability, T/C (second compound 0.0316 µM, first compound 0.0316 µM): 32.5% | viability, T/C (second compound 0.0316 µM, first compound 0.1 µM): 35.9% | viability, T/C (second compound 0.0316 µM, first compound 0.316 µM): 32.6% | viability, T/C (second compound 0.0316 µM, first compound 1 µM): 30.2% | viability, T/C (second compound 0.0316 µM, first compound 3.16 µM): 37.5% | viability, T/C (second compound 0.0316 µM, first compound 10 µM): 47.2% | viability, T/C (second compound 0.1 µM, first compound 0.0316 µM): 33.3% | viability, T/C (second compound 0.1 µM, first compound 0.1 µM): 39.6% | viability, T/C (second compound 0.1 µM, first compound 0.316 µM): 35.2% | viability, T/C (second compound 0.1 µM, first compound 1 µM): 37.7% | viability, T/C (second compound 0.1 µM, first compound 3.16 µM): 35.6% | viability, T/C (second compound 0.1 µM, first compound 10 µM): 40.4% | viability, T/C (second compound 0.316 µM, first compound 0.0316 µM): 33.2% | viability, T/C (second compound 0.316 µM, first compound 0.1 µM): 31.7% | viability, T/C (second compound 0.316 µM, first compound 0.316 µM): 28.6% | viability, T/C (second compound 0.316 µM, first compound 1 µM): 30.9% | viability, T/C (second compound 0.316 µM, first compound 3.16 µM): 37% | viability, T/C (second compound 0.316 µM, first compound 10 µM): 38.7% | viability, T/C (second compound 1 µM, first compound 0.0316 µM): 21.7% | viability, T/C (second compound 1 µM, first compound 0.1 µM): 34.3% | viability, T/C (second compound 1 µM, first compound 0.316 µM): 32.6% | viability, T/C (second compound 1 µM, first compound 1 µM): 29.4% | viability, T/C (second compound 1 µM, first compound 3.16 µM): 51.5% | viability, T/C (second compound 1 µM, first compound 10 µM): 40.5% | viability, T/C (second compound 3.16 µM, first compound 0.0316 µM): 27.4% | viability, T/C (second compound 3.16 µM, first compound 0.1 µM): 33.3% | viability, T/C (second compound 3.16 µM, first compound 0.316 µM): 30.8% | viability, T/C (second compound 3.16 µM, first compound 1 µM): 33.4% | viability, T/C (second compound 3.16 µM, first compound 3.16 µM): 31.1% | viability, T/C (second compound 3.16 µM, first compound 10 µM): 33% | viability, T/C (second compound 10 µM, first compound 0.0316 µM): 24.8% | viability, T/C (second compound 10 µM, first compound 0.1 µM): 34.1% | viability, T/C (second compound 10 µM, first compound 0.316 µM): 28.3% | viability, T/C (second compound 10 µM, first compound 1 µM): 28.7% | viability, T/C (second compound 10 µM, first compound 3.16 µM): 32.1% | viability, T/C (second compound 10 µM, first compound 10 µM): 25.1%
